Results: patent publication US20100144626A1, “Treatment of Multi-Drug Resistant Bacterial Infections” (priority 2006, published 2010)
≈ marks a conversion by molar mass, not a printed value. Entries after “also recorded” stand apart in the source; their conditions may differ. Like-named read-outs stand apart in the source and are kept apart here.

Experiments:
[1] = in vivo; cited from earlier work
[2] = system: Gram-negative organisms; test: Growth inhibition, summary of MIC testing; format: cell-based; details: summary in words
Protocol: (§1) In example experiments miconazole nitrate, was dissolved in methanol and econazole nitrate and clotrimazole were dissolved in DMSO and methanol respectively. Other solvents that may be used include caster oil, pyridine, DMSO and 0.9% saline. For IV administration agents may be solubilised in polyethoxylated caster oil, or cyclodextrins such as sulfobutylether7-βcyclodextrin or hydroxypropyl-β-cyclodextrin and lactic acid. Minimum inhibitory concentrations (MICs) of a range of clinical and control bacterial organisms were measured according to BSAC (British Society for Antimicrobial Chemotherapy) guidelines, described briefly as follows;
(§2) Stock solutions were prepared at concentrations of 1000 mg/L and 100 mg/L. The appropriate amounts of each stock solution were added to separate Petri dishes give the following final concentrations (after the addition of 20 mL molten agar): 128, 64, 32, 16, 8, 4, 2, 1, 0.5, 0.25, 0.12, 0.06, 0.03, 0.015 mg/L.
(§3) The test organisms were grown overnight in 5 mL IST broth. Using a dilution in 0.9% saline of 1:500 for Gram-negative organisms and 1:100 for Gram-positive organisms, the appropriate agar plates were inoculated using a multipoint inoculator.
(§4) Plates were incubated at 37° C. in air for 18-20 hours.
(§5) The MIC is the minimum amount of an antibiotic at which there is no visible growth of bacteria. Tiny single colonies or faint hazes were not counted as growth.

[3] = system: strains of Staphylococci and Enterococci with reduced susceptibility to vancomycin; test: Growth inhibition, summary of MIC testing; format: cell-based; details: summary in words
Protocol: as §1, §2, §3, §4, §5

[4] = system: VISA, strain VISA 3900 UK; test: MIC, agar dilution (BSAC guidelines); format: cell-based; details: Staphylococcus aureus
Protocol: as §1
(§6) Preparation of Agar Plates and Broths
(§7) Stock solutions of each agent were prepared using the formula:
(§8) Where P=μg of active compound per mg (μg/mg) • V=volume required (mL) • C=final concentration of solution (mg/L) • W=weight of agent (mg) to be dissolved in volume V (mL)
as §2
(§9) Volumes (20 mL) of cooled molten IST agar (oxoid) was added to each Petri dish and mixed by swirling.
(§10) After drying, the plates were stored at 4° C. and protected from light. Plates were used on the day of preparation.
as §3, §4, §5

[5] = system: Enterococcus gallinarum (VRE) E1 NCTC 12359 VanC1; test: MIC, agar dilution (BSAC guidelines); format: cell-based
Protocol: as §1, §6, §7, §8, §2, §9, §10, §3, §4, §5

[6] = system: Acinetobacter Baumannii ATCC 19606; test: MIC, agar dilution (BSAC guidelines); format: cell-based
Protocol: as §1, §6, §7, §8, §2, §9, §10, §3, §4, §5

[7] = system: Enterococcus faecalis (VRE) E8 VanA; test: MIC, agar dilution (BSAC guidelines); format: cell-based; details: E. faecalis (VRE) E8 VanA
Protocol: as §1, §6, §7, §8, §2, §9, §10, §3, §4, §5

[8] = system: Enterococcus faecium (VRE) VanR B145344C LFE; test: MIC, agar dilution (BSAC guidelines); format: cell-based; details: E. faecium (VRE) VanR B145344C LFE
Protocol: as §1, §6, §7, §8, §2, §9, §10, §3, §4, §5

[9] = system: Pseudomonas aeruginosa NCTC 10662; test: MIC, agar dilution (BSAC guidelines); format: cell-based
Protocol: as §1, §6, §7, §8, §2, §9, §10, §3, §4, §5

[10] = system: Staphylococcus epidermidis ATCC 1228; test: MIC, agar dilution (BSAC guidelines); format: cell-based
Protocol: as §1, §6, §7, §8, §2, §9, §10, §3, §4, §5

[11] = system: VISA, strain USA/VISA 5827; test: MIC, agar dilution (BSAC guidelines); format: cell-based; details: Staphylococcus aureus
Protocol: as §1, §6, §7, §8, §2, §9, §10, §3, §4, §5

[12] = system: Enterococcus faecium (VRE) E15 VanA ATCC 4147; test: MIC, agar dilution (BSAC guidelines); format: cell-based
Protocol: as §1, §6, §7, §8, §2, §9, §10, §3, §4, §5

[13] = system: Escherichia coli NCTC 10418; test: MIC, agar dilution (BSAC guidelines); format: cell-based
Protocol: as §1, §6, §7, §8, §2, §9, §10, §3, §4, §5

[14] = system: Enterococcus faecium (VRE) NCTC 7171; test: MIC, agar dilution (BSAC guidelines); format: cell-based
Protocol: as §1, §6, §7, §8, §2, §9, §10, §3, §4, §5

[15] = system: VISA, strain USA/VISA 5836; test: MIC, agar dilution (BSAC guidelines); format: cell-based; details: Staphylococcus aureus
Protocol: as §1, §6, §7, §8, §2, §9, §10, §3, §4, §5

[16] = system: Klebsiella pneumoniae ESBL 700603; test: MIC, agar dilution (BSAC guidelines); format: cell-based
Protocol: as §1, §6, §7, §8, §2, §9, §10, §3, §4, §5

[17] = system: Enterococcus faecium (VRE) E19 UAA/522 VanB; test: MIC, agar dilution (BSAC guidelines); format: cell-based; details: E. faecium (VRE) E19 UAA/522 VanB
Protocol: as §1, §6, §7, §8, §2, §9, §10, §3, §4, §5

[18] = replicate 1, read-out: Minimum inhibitory concentration (MIC)
[19] = replicate 2, read-out: Minimum inhibitory concentration (MIC)
[20] = replicate 3, read-out: Minimum inhibitory concentration (MIC)

Clc1ccccc1C(c1ccccc1)(c1ccccc1)n1ccnc1 [Clotrimazole, 1-[(2-chlorophenyl)diphenylmethyl]-1H-imidazole]
concentration in the stratum corneum [1]: 100 mcg/cm3 | concentration in the stratum reticulare [1]: 0.5-1 mcg/cm3 | concentration in the subcutis [1]: 0.1 mcg/cm3 | activity against Gram-negative organisms [2]: no significant activity | activity against strains of Staphylococci and Enterococci with reduced susceptibility to vancomycin [3]: good activity; also recorded: capable of inhibiting the growth | MIC [4, 18]: 1.5 µg/mL (≈ 4.35 µM) | MIC [4, 19]: 2.5 µg/mL (≈ 7.25 µM) | MIC [4, 20]: 2.5 µg/mL (≈ 7.25 µM) | MIC ([5]; E. gallinarum (VRE) E1 NCTC 12359 VanC1, replicate 1, read-out: Minimum inhibitory concentration (MIC)): 4 µg/mL (≈ 11.6 µM) | MIC ([5]; E. gallinarum (VRE) E1 NCTC 12359 VanC1, replicate 2, read-out: Minimum inhibitory concentration (MIC)): 6 µg/mL (≈ 17.4 µM) | MIC ([5]; E. gallinarum (VRE) E1 NCTC 12359 VanC1, replicate 3, read-out: Minimum inhibitory concentration (MIC)): > 6 µg/mL | MIC ([6]; ATCC19606, Acinetobacter Baumannii ATCC 19606, replicate 1, read-out: Minimum inhibitory concentration (MIC)): > 10 µg/mL | MIC ([6]; ATCC19606, Acinetobacter Baumannii ATCC 19606, replicate 2, read-out: Minimum inhibitory concentration (MIC)): > 6 µg/mL | MIC ([6]; ATCC19606, Acinetobacter Baumannii ATCC 19606, replicate 3, read-out: Minimum inhibitory concentration (MIC)): > 6 µg/mL | MIC [7, 18]: 6.5 µg/mL (≈ 18.8 µM) | MIC [7, 19]: > 6 µg/mL | MIC [7, 20]: > 6 µg/mL | MIC [8, 18]: 3 µg/mL (≈ 8.7 µM) | MIC [8, 19]: 4.5 µg/mL (≈ 13 µM) | MIC [8, 20]: 5 µg/mL (≈ 14.5 µM) | MIC ([9]; NCTC10662, P. aeruginosa NCTC 10662, replicate 1, read-out: Minimum inhibitory concentration (MIC)): > 10 µg/mL | MIC ([9]; NCTC10662, P. aeruginosa NCTC 10662, replicate 2, read-out: Minimum inhibitory concentration (MIC)): > 6 µg/mL | MIC ([9]; NCTC10662, P. aeruginosa NCTC 10662, replicate 3, read-out: Minimum inhibitory concentration (MIC)): > 6 µg/mL | MIC ([10]; ATCC1228, S. epidermidis ATCC 1228, replicate 1, read-out: Minimum inhibitory concentration (MIC)): 3 µg/mL (≈ 8.7 µM) | MIC ([10]; ATCC1228, S. epidermidis ATCC 1228, replicate 2, read-out: Minimum inhibitory concentration (MIC)): 3 µg/mL (≈ 8.7 µM) | MIC ([10]; ATCC1228, S. epidermidis ATCC 1228, replicate 3, read-out: Minimum inhibitory concentration (MIC)): 2.5 µg/mL (≈ 7.25 µM) | MIC [11, 18]: 1.5 µg/mL (≈ 4.35 µM) | MIC [11, 19]: 3.5 µg/mL (≈ 10.1 µM) | MIC [11, 20]: 3 µg/mL (≈ 8.7 µM) | MIC ([12]; E. faecium (VRE) E15 VanA ATCC 4147, replicate 1, read-out: Minimum inhibitory concentration (MIC)): 2.5 µg/mL (≈ 7.25 µM) | MIC ([12]; E. faecium (VRE) E15 VanA ATCC 4147, replicate 2, read-out: Minimum inhibitory concentration (MIC)): 4 µg/mL (≈ 11.6 µM) | MIC ([12]; E. faecium (VRE) E15 VanA ATCC 4147, replicate 3, read-out: Minimum inhibitory concentration (MIC)): 4.5 µg/mL (≈ 13 µM) | MIC ([13]; NCTC10418, E. coli NCTC 10418, replicate 1, read-out: Minimum inhibitory concentration (MIC)): > 10 µg/mL | MIC ([13]; NCTC10418, E. coli NCTC 10418, replicate 2, read-out: Minimum inhibitory concentration (MIC)): > 6 µg/mL | MIC ([13]; NCTC10418, E. coli NCTC 10418, replicate 3, read-out: Minimum inhibitory concentration (MIC)): > 6 µg/mL | MIC ([14]; E. faecium (VRE) NCTC 7171, replicate 1, read-out: Minimum inhibitory concentration (MIC)): 4 µg/mL (≈ 11.6 µM) | MIC ([14]; E. faecium (VRE) NCTC 7171, replicate 2, read-out: Minimum inhibitory concentration (MIC)): 6 µg/mL (≈ 17.4 µM) | MIC ([14]; E. faecium (VRE) NCTC 7171, replicate 3, read-out: Minimum inhibitory concentration (MIC)): > 6 µg/mL | MIC [15, 18]: 1.5 µg/mL (≈ 4.35 µM) | MIC [15, 19]: 3 µg/mL (≈ 8.7 µM) | MIC [15, 20]: 2.5 µg/mL (≈ 7.25 µM) | MIC ([16]; ESBL700603, K. pneumoniae ESBL 700603, replicate 1, read-out: Minimum inhibitory concentration (MIC)): > 10 µg/mL | MIC ([16]; ESBL700603, K. pneumoniae ESBL 700603, replicate 2, read-out: Minimum inhibitory concentration (MIC)): > 6 µg/mL | MIC ([16]; ESBL700603, K. pneumoniae ESBL 700603, replicate 3, read-out: Minimum inhibitory concentration (MIC)): > 6 µg/mL | MIC [17, 18]: 1.5 µg/mL (≈ 4.35 µM) | MIC [17, 19]: 3.5 µg/mL (≈ 10.1 µM) | MIC [17, 20]: 3.5 µg/mL (≈ 10.1 µM)
